Measurements as given in US3979515A, “Novel dibenzo(b,f)azepines as thymoanaleptics” (Roussel-UCLAF, priority 1969, dated 1976).
One block for each molecule: values may come before it.

What was measured:
[1] = solubility in water (product description); type: physicochemical; details: qualitative
[2] = acute toxicity determination; details: mouse, in vivo, ip; Rockland mice 18-22 g, intraperitoneal, observed for 7 days; read-out: LD50 (50% of animals died)
[3] = system: eyelid ptosis caused by reserpine; test: eyelid ptosis test (antagonism of reserpine, anti-depressant activity); type: in vivo, rats; details: 1 h before reserpine 1 mg/kg i.p., read 4 h after reserpine, percent of controls receiving reserpine only
Protocol: The anti-depressant activity was determined by the eyelid ptosis test codified by Rubin, J. Pharm. Exp. Ther. Vol. 120 (1957), p. 125. […] The eyelid ptosis test is used as a quantitative evaluation of the animal's condition but the antagonism is equally exerted on all the neuro-depressive symptoms of reserpine: immobility, […], hypothermia,myosis, etc. […] The results of Table I are expressed as percent of ptosis compared to the controls receiving reserpine only.

SMILES: CN(C)CCC1=Cc2ccccc2N(C)c2ccccc21 [5-methyl-10-(β-dimethylaminoethyl)-dibenzo (b,f) azepine]
- solubility in water [1]: insoluble in water
- LD50 at 168 h [2]: ~50 mg/kg
- % of ptosis ([3]; 2 mg/kg i.p.): 100%
- % of ptosis ([3]; 5 mg/kg i.p.): 59%
- % of ptosis ([3]; 10 mg/kg i.p.): 37%
- % of ptosis ([3]; 20 mg/kg i.p.): 30%

SMILES: CNCCC1=Cc2ccccc2N(C)c2ccccc21.Cl [5-methyl-10(β-monomethylaminoethyl)-dibenzo (b,f) azepine hydrochloride]
- solubility in water [1]: insoluble in ether and water
- LD50 at 168 h [2]: ~75 mg/kg
- % of ptosis ([3]; 1 mg/kg i.p.): 100%
- % of ptosis ([3]; 2 mg/kg i.p.): 72%
- % of ptosis ([3]; 5 mg/kg i.p.): 50%
- % of ptosis ([3]; 10 mg/kg i.p.): 33%
- % of ptosis ([3]; 20 mg/kg i.p.): 11%

Other lines, results leading:

- solubility in water [1]: insoluble in water
SMILES: CN(C)CCC1=Cc2ccccc2N(C)c2ccc(Cl)cc21 [8-chloro-5-methyl-10-(β-dimethylaminoethyl)-dibenzo(b,f)azepine]

- solubility in water [1]: insoluble in water
SMILES: CN(C)CCC1=Cc2ccccc2N(C)c2cc(Cl)ccc21 [7-chloro-5-methyl-10-(β-dimethylaminoethyl)-dibenzo (b,f) azepine]

- solubility in water [1]: slightly soluble in water
SMILES: CNCCC1=Cc2ccccc2N(C)c2cc(Cl)ccc21 [fumarate of 7-chloro-5-methyl-10-(β-monomethylaminoethyl)-dibenzo (b,f) azepine]
